Source: the supplement of paper PMC13207355
Where a name gives a salt, the structure may show the parent alone.

Columns and labels:
Details in all cases: exposure time: 72 h
[1] = tested on: E13 (patient-derived glioblastoma stem cells of classical subtype); assay: surviving fraction (nuclei count normalised to DMSO); higher = more cells surviving (less toxic)
[2] = tested on: E21 (patient-derived glioblastoma stem cells of mesenchymal subtype); assay: as above
[3] = tested on: E28 (patient-derived glioblastoma stem cells of classical subtype); assay: as above
[4] = tested on: E31 (patient-derived glioblastoma stem cells of proneural subtype); assay: as above
[5] = tested on: E34 (patient-derived glioblastoma stem cells of proneural subtype); assay: as above
[6] = tested on: E57 (patient-derived glioblastoma stem cells of mesenchymal subtype); assay: as above
[7] = tested on: FT3469 (normal neural stem cell line); assay: as above
[8] = tested on: E13; assay: phenotypic distance (Euclidean, principal components) from DMSO controls (arbitrary units); higher = stronger morphological change
[9] = tested on: E21; assay: as above
[10] = tested on: E28; assay: as above
[11] = tested on: E31; assay: as above
[12] = tested on: E34; assay: as above
[13] = tested on: E57; assay: as above
[14] = tested on: FT3469; assay: as above
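Wherever phenotypic distance (Euclidean, principal components) from DMSO controls is given: cell Painting imaging in 384-well plates, CellProfiler features reduced to at least 20 principal components, Euclidean distance versus same-plate DMSO vehicle wells (0.1% v/v), median over six images per well.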
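Wherever surviving fraction (nuclei count normalised to DMSO) is given: nuclei counted by high-content imaging of Hoechst-stained cells in laminin-coated 384-well plates, relative to 0.1% DMSO vehicle wells, with staurosporine as cell-death control.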

CCOC(=O)OC(C)OC(=O)[C@@H]1N2C(=O)[C@@H](NC(=O)[C@H](N)c3ccccc3)[C@H]2SC1(C)C (some centres undefined) [Bacampicillin hydrochloride]
Details	phenotypic distance	surviving fraction
[1], 4.1 nM	–	0.878
[1], 12.3 nM	–	0.951
[1], 37 nM	–	1.03
[1], 111.1 nM	–	0.813
[1], 333.3 nM	–	1
[1], 1000 nM	–	1.04
[1], 3000 nM	–	1.11
[2], 4.1 nM	–	0.982
[2], 12.3 nM	–	1.01
[2], 37 nM	–	1.09
[2], 111.1 nM	–	1.01
[2], 333.3 nM	–	1
[2], 1000 nM	–	0.914
[2], 3000 nM	–	1.06
[3], 4.1 nM	–	0.882
[3], 12.3 nM	–	0.993
[3], 37 nM	–	1.09
[3], 111.1 nM	–	1.19
[3], 333.3 nM	–	0.997
[3], 1000 nM	–	1.15
[3], 3000 nM	–	1.06
[4], 4.1 nM	–	0.986
[4], 12.3 nM	–	0.807
[4], 37 nM	–	0.871
[4], 111.1 nM	–	0.941
[4], 333.3 nM	–	1
[4], 1000 nM	–	0.965
[4], 3000 nM	–	1.1
[5], 4.1 nM	–	0.918
[5], 12.3 nM	–	1.02
[5], 37 nM	–	0.858
[5], 111.1 nM	–	0.934
[5], 333.3 nM	–	1.25
[5], 1000 nM	–	1.05
[5], 3000 nM	–	1.07
[6], 4.1 nM	–	0.987
[6], 12.3 nM	–	1.09
[6], 37 nM	–	0.961
[6], 111.1 nM	–	1.03
[6], 333.3 nM	–	0.926
[6], 1000 nM	–	0.97
[6], 3000 nM	–	0.956
[7], 4.1 nM	–	0.909
[7], 12.3 nM	–	0.875
[7], 37 nM	–	1.05
[7], 111.1 nM	–	0.978
[7], 333.3 nM	–	1.03
[7], 1000 nM	–	1.05
[7], 3000 nM	–	0.858
[8], 4.1 nM	0.65	–
[8], 12.3 nM	1.12	–
[8], 37 nM	0.975	–
[8], 111.1 nM	0.635	–
[8], 333.3 nM	0.439	–
[8], 1000 nM	0.698	–
[8], 3000 nM	0.628	–
[9], 4.1 nM	0.814	–
[9], 12.3 nM	0.643	–
[9], 37 nM	1.05	–
[9], 111.1 nM	0.376	–
[9], 333.3 nM	0.776	–
[9], 1000 nM	0.7	–
[9], 3000 nM	0.853	–
[10], 4.1 nM	0.82	–
[10], 12.3 nM	0.789	–
[10], 37 nM	1.1	–
[10], 111.1 nM	0.421	–
[10], 333.3 nM	0.781	–
[10], 1000 nM	0.904	–
[10], 3000 nM	0.881	–
[11], 4.1 nM	0.89	–
[11], 12.3 nM	0.639	–
[11], 37 nM	0.836	–
[11], 111.1 nM	0.578	–
[11], 333.3 nM	0.932	–
[11], 1000 nM	0.697	–
[11], 3000 nM	0.565	–
[12], 4.1 nM	0.569	–
[12], 12.3 nM	0.614	–
[12], 37 nM	0.651	–
[12], 111.1 nM	0.507	–
[12], 333.3 nM	1.28	–
[12], 1000 nM	0.329	–
[12], 3000 nM	1.06	–
[13], 4.1 nM	0.537	–
[13], 12.3 nM	1.07	–
[13], 37 nM	0.681	–
[13], 111.1 nM	0.754	–
[13], 333.3 nM	0.45	–
[13], 1000 nM	0.576	–
[13], 3000 nM	0.604	–
[14], 4.1 nM	0.697	–
[14], 12.3 nM	0.387	–
[14], 37 nM	0.735	–
[14], 111.1 nM	0.551	–
[14], 333.3 nM	0.433	–
[14], 1000 nM	0.827	–
[14], 3000 nM	0.96	–

Cc1ccc(S(=O)(=O)/C=C/C#N)cc1 [Bay 11-7082]
Details	phenotypic distance	surviving fraction
[1], 4.1 nM	–	0.964
[1], 12.3 nM	–	1.06
[1], 37 nM	–	1.03
[1], 111.1 nM	–	0.988
[1], 333.3 nM	–	0.976
[1], 1000 nM	–	0.692
[1], 3000 nM	–	0.0324
[2], 4.1 nM	–	1.01
[2], 12.3 nM	–	1.06
[2], 37 nM	–	0.902
[2], 111.1 nM	–	1
[2], 333.3 nM	–	0.952
[2], 1000 nM	–	0.67
[2], 3000 nM	–	0.000991
[3], 4.1 nM	–	1.16
[3], 12.3 nM	–	1.07
[3], 37 nM	–	1.02
[3], 111.1 nM	–	0.918
[3], 333.3 nM	–	0.805
[3], 1000 nM	–	0.523
[3], 3000 nM	–	0.00427
[4], 4.1 nM	–	0.981
[4], 12.3 nM	–	1.12
[4], 37 nM	–	1.07
[4], 111.1 nM	–	0.915
[4], 333.3 nM	–	0.833
[4], 1000 nM	–	0.574
[4], 3000 nM	–	0.00325
[5], 4.1 nM	–	1.17
[5], 12.3 nM	–	0.972
[5], 37 nM	–	1.03
[5], 111.1 nM	–	0.881
[5], 333.3 nM	–	1.04
[5], 1000 nM	–	0.841
[5], 3000 nM	–	0.208
[6], 4.1 nM	–	0.965
[6], 12.3 nM	–	0.935
[6], 37 nM	–	0.978
[6], 111.1 nM	–	0.894
[6], 333.3 nM	–	0.905
[6], 1000 nM	–	0.712
[6], 3000 nM	–	0.107
[7], 4.1 nM	–	0.987
[7], 12.3 nM	–	0.984
[7], 37 nM	–	0.932
[7], 111.1 nM	–	0.814
[7], 333.3 nM	–	0.809
[7], 1000 nM	–	0.714
[7], 3000 nM	–	0.0259
[8], 4.1 nM	0.928	–
[8], 12.3 nM	0.789	–
[8], 37 nM	0.388	–
[8], 111.1 nM	0.428	–
[8], 333.3 nM	0.7	–
[8], 1000 nM	2.5	–
[8], 3000 nM	13.2	–
[9], 4.1 nM	0.363	–
[9], 12.3 nM	0.689	–
[9], 37 nM	0.461	–
[9], 111.1 nM	0.482	–
[9], 333.3 nM	0.803	–
[9], 1000 nM	2.09	–
[9], 3000 nM	18.7	–
[10], 4.1 nM	0.601	–
[10], 12.3 nM	0.591	–
[10], 37 nM	0.652	–
[10], 111.1 nM	1.11	–
[10], 333.3 nM	1.33	–
[10], 1000 nM	1.83	–
[10], 3000 nM	16.4	–
[11], 4.1 nM	0.798	–
[11], 12.3 nM	0.511	–
[11], 37 nM	0.513	–
[11], 111.1 nM	0.736	–
[11], 333.3 nM	0.957	–
[11], 1000 nM	1.61	–
[11], 3000 nM	15.2	–
[12], 4.1 nM	1.17	–
[12], 12.3 nM	0.478	–
[12], 37 nM	0.466	–
[12], 111.1 nM	0.813	–
[12], 333.3 nM	0.985	–
[12], 1000 nM	0.91	–
[12], 3000 nM	9.42	–
[13], 4.1 nM	0.529	–
[13], 12.3 nM	0.37	–
[13], 37 nM	0.668	–
[13], 111.1 nM	0.846	–
[13], 333.3 nM	1.16	–
[13], 1000 nM	2.8	–
[13], 3000 nM	8.7	–
[14], 4.1 nM	0.889	–
[14], 12.3 nM	0.728	–
[14], 37 nM	0.551	–
[14], 111.1 nM	0.796	–
[14], 333.3 nM	1.04	–
[14], 1000 nM	2.13	–
[14], 3000 nM	17.6	–

NC(=O)c1ccccc1 [Benzamide]
Details	phenotypic distance	surviving fraction
[1], 4.1 nM	–	0.896
[1], 12.3 nM	–	0.891
[1], 37 nM	–	0.961
[1], 111.1 nM	–	1.04
[1], 333.3 nM	–	1.03
[1], 1000 nM	–	0.945
[1], 3000 nM	–	1.04
[2], 4.1 nM	–	1.03
[2], 12.3 nM	–	0.945
[2], 37 nM	–	0.996
[2], 111.1 nM	–	1.1
[2], 333.3 nM	–	1.04
[2], 1000 nM	–	0.872
[2], 3000 nM	–	1
[3], 4.1 nM	–	0.82
[3], 12.3 nM	–	1.08
[3], 37 nM	–	0.909
[3], 111.1 nM	–	1.31
[3], 333.3 nM	–	1.03
[3], 1000 nM	–	1.09
[3], 3000 nM	–	1.04
[4], 4.1 nM	–	0.994
[4], 12.3 nM	–	0.978
[4], 37 nM	–	0.972
[4], 111.1 nM	–	1.02
[4], 333.3 nM	–	0.968
[4], 1000 nM	–	1.07
[4], 3000 nM	–	0.947
[5], 4.1 nM	–	1.03
[5], 12.3 nM	–	0.958
[5], 37 nM	–	0.993
[5], 111.1 nM	–	1.04
[5], 333.3 nM	–	0.904
[5], 1000 nM	–	1.29
[5], 3000 nM	–	1.03
[6], 4.1 nM	–	0.938
[6], 12.3 nM	–	1.06
[6], 37 nM	–	1.02
[6], 111.1 nM	–	0.94
[6], 333.3 nM	–	0.938
[6], 1000 nM	–	0.896
[6], 3000 nM	–	0.99
[7], 4.1 nM	–	0.912
[7], 12.3 nM	–	1.15
[7], 37 nM	–	0.999
[7], 111.1 nM	–	0.863
[7], 333.3 nM	–	0.935
[7], 1000 nM	–	0.921
[7], 3000 nM	–	1.1
[8], 4.1 nM	0.817	–
[8], 12.3 nM	0.661	–
[8], 37 nM	0.401	–
[8], 111.1 nM	0.597	–
[8], 333.3 nM	0.747	–
[8], 1000 nM	0.669	–
[8], 3000 nM	0.437	–
[9], 4.1 nM	0.487	–
[9], 12.3 nM	0.521	–
[9], 37 nM	0.591	–
[9], 111.1 nM	1.08	–
[9], 333.3 nM	0.913	–
[9], 1000 nM	0.784	–
[9], 3000 nM	0.381	–
[10], 4.1 nM	0.972	–
[10], 12.3 nM	1.17	–
[10], 37 nM	0.735	–
[10], 111.1 nM	1.32	–
[10], 333.3 nM	0.871	–
[10], 1000 nM	1.28	–
[10], 3000 nM	0.95	–
[11], 4.1 nM	0.849	–
[11], 12.3 nM	1.02	–
[11], 37 nM	1.47	–
[11], 111.1 nM	1.03	–
[11], 333.3 nM	0.83	–
[11], 1000 nM	0.791	–
[11], 3000 nM	0.951	–
[12], 4.1 nM	1.19	–
[12], 12.3 nM	0.687	–
[12], 37 nM	0.776	–
[12], 111.1 nM	1.03	–
[12], 333.3 nM	0.862	–
[12], 1000 nM	1.13	–
[12], 3000 nM	0.579	–
[13], 4.1 nM	0.41	–
[13], 12.3 nM	0.828	–
[13], 37 nM	0.568	–
[13], 111.1 nM	0.557	–
[13], 333.3 nM	0.555	–
[13], 1000 nM	0.56	–
[13], 3000 nM	0.478	–
[14], 4.1 nM	0.505	–
[14], 12.3 nM	1.05	–
[14], 37 nM	0.628	–
[14], 111.1 nM	1.13	–
[14], 333.3 nM	0.522	–
[14], 1000 nM	1.07	–
[14], 3000 nM	0.83	–
